Experimental data as given in US10729810B2, “Methods, systems, and compositions for promoting bone growth” (Cayman Chemical Company, Inc., priority 2013, dated 2020).
Each block holds one compound with its values, some of them ahead of it.

Experiments:
rat calvarial defect [1] = assay: Rat calvarial defect model, drug in calcium phosphate cement suspended in demineralized bone matrix putty; type: in vivo, female Sprague Dawley rats; conditions: 2.6 mm defect, eight weeks
Experimental: The rat calvarial defect model is a widely used model through which the ability of a treatment agent to induce bone formation is assessed (Aghaloo et al., The effect of NELL1 and bone morphogenetic protein-2 on calvarial bone regeneration, J. Oral Maxillofac. Surg. 2010: 68:300-308; Mark et al., Repair of calvarial nonunions by osteogenin, a bone-inductive protein, Plast. Reconstr. Surg. 1990: 86:623-30).
Bone defects are created by removal of bone from the cranium of female Sprague Dawley rats by a bone trephine (cranial defect). Cranial defects are 2.6 mm in diameter and the cranium approximately 1 mm thick. A matrix of approximately 2 mm thickness is applied to the defect. Thus the dosing volume for each defect is calculated as π*r^2*matrix thickness=3.14*1.3^2*2=10.61 μl and rounded to 11 μl for purposes of dose calculation.
EXAMPLE 2C is tested at seven doses with five rats in each group. These are 3, 10, 30, 100 and 300 μg/ml and 1 and 3 mg/ml. A negative control group treated with dosing matrix containing no drug (Vehicle) as well as a positive control group treated with 50 μg/ml recombinant human bone morphogenetic protein 2 (BMP-2) are also included in the study. […]
The area measured each week is compared to that of the first week and the degree of repair calculated by the following formula: (original area−current area)/original area*100 […]

[2] = molecular target: T1, Human Prostanoid EP4 Receptor (Homo sapiens, UniProt P35408); assay: Radioligand binding assay, agonist site of human prostanoid EP4 receptor in transfected HEK-293 cells; conditions: for hEP4 receptor binding, % @100: @100, printed in the IC50 (nM) column
T1 construct: expressed in transfected cells; host or cells: HEK-293 cells (membrane homogenates)
Experimental: Radioligand Binding Assay for the Evaluation of the Affinity of Compounds for the Agonist Site of the Human Prostanoid EP4 Receptor in Transfected HEK-293 Cells
Following incubation, the samples are filtered rapidly under vacuum through glass fiber filters (GF/B, Packard) presoaked with 0.3% PEI and rinsed several times with ice-cold 50 mM Tris-HCl using a 96-sample cell harvester (Unifilter, Packard). The filters are dried then counted for radioactivity in a scintillation counter (Topcount, Packard) using a scintillation cocktail (Microscint 0, Packard).

osteoporotic femur = assay: Bone density of osteoporotic femur after osteotomy with drug-cement insert in ovariectomized rats; type: in vivo, Female Sprague Dawley rats
Experimental: Dosing solutions are made from a 5 mg/ml Example 2E' stock which is made by dissolving 2.08 mg of neat Example 2E' in 416 μl of 100% ethanol. The dosing solution for Example 2E' was made by adding 44.4 μL of the 5 mg/ml stock to 22.2 mg of calcium phosphate cement powder. The Vehicle dosing solution was made by adding 50.4 μl of ethanol containing no Example 2E' to 25.2 mg of calcium phosphate cement powder. After the ethanol has been vented off, the cement is wetted with a setting solution and mixed thoroughly for 1 minute as the cement begins to set. The cement is separated into five aliquots and placed on a glass microscope slide. […] After obtaining the CT image the cross sectional density of the bone 3 mm dorsal to the implant site is measured in three places and the measurements averaged. The density of the phantom is measured at the same time and is compared to the phantom measurement on week 0. […] For example the density of the femur of a vehicle treated rat imaged on week 0 is measured at 3028, 3597 and 3329 units (average=3318) and the phantom measured 4209 units. […] The relative density on bone at week 3 compared to week 0 is then calculated as: average week 3normalized/average week 0*100=3378/3318*100=101.8% The mean change in bone density of both groups after three weeks of treatment is shown in FIG. 5. […]

rat calvarial defect [3] = assay: Rat calvarial defect model, drug-cement loaded into intact demineralized bone matrix; type: in vivo, female Sprague Dawley rats; conditions: 5.0 mm defect; 10 mg/gm of cement; four weeks; FIG. 4
Experimental: Bone defects are created by removal of bone from the cranium of female Sprague Dawley rats by a bone trephine (cranial defect). Cranial defects are 5.0 mm in diameter and the cranium approximately 1 mm thick.
EXAMPLE 2E′ is delivered inside calcium phosphate cement that, after loading with drug set inside three voids each of approximately 1.0 mm in diameter drilled into a solid demineralized bone matrix circular block of 5.0 mm in diameter and 1 mm thickness. EXAMPLE 2E′ is tested at 10 mg/gm of cement. A negative control group treated with dosing matrix containing no drug (Vehicle) is also included in the study.
Dosing solutions are made from a 5 mg/ml EXAMPLE 2E′ stock which is made by dissolving 2.08 mg of neat EXAMPLE 2E′ in 416 μl of 100% ethanol.
The volume of each dosing void is π*r^2*matrix thickness=3.14*0.5^2*1=0.8 μl. Thus a 5 mm solid demineralized matrix with three voids filled with cement contains 2.4 μl of loading cement. The cement that is used weighs 107 mg for 100 μl volume. Thus 2.4 ul of volume is occupied by 2.6 mg of cement. A 10 mg/gm dosing cement provides 26 ug of EXAMPLE 2E′ for each 5 mm intact demineralized bone matrix block. […]
The area measured each week is compared to that of the first week and the degree of repair calculated by the following formula: (original area−current area)/original area*100

T1 sequence (P35408 whole entry): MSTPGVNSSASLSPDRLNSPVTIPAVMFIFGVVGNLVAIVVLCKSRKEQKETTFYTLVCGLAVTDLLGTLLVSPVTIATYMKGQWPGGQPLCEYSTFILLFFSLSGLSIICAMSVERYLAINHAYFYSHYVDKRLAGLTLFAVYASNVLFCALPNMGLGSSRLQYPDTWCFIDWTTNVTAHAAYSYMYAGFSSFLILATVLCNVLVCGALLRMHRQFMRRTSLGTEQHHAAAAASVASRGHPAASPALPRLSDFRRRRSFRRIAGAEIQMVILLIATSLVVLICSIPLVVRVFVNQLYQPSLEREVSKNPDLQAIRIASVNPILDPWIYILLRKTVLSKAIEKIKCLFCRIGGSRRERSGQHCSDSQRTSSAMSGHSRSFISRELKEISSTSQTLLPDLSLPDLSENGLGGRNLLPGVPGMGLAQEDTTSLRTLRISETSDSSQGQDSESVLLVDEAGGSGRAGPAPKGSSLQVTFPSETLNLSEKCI

Structure (SMILES): CCC#CC[C@H](C)[C@H](O)/C=C/[C@H]1CC(F)(F)C(=O)N1CCCCCCC(=O)O [Example 2C, 7-((R)-3,3-difluoro-5-((3S,4S,E)-3-hydroxy-4-methylnon-1-en-6-yn-1-yl)-2-oxopyrrolidin-1-yl)heptanoic acid]
- Healing of a calvarial bone defect (rat calvarial defect [1]; 3 μg/ml to 3 mg/ml in cement-DBM putty 1:8, FIG. 1): Accelerated Healing

Structure (SMILES): C[C@@H](CCCc1ccccc1)[C@H](O)/C=C/[C@H]1CC(F)(F)C(=O)N1CCCc1ccc(C(=O)O)s1 [Example 28C, 5-(3-((R)-3,3-difluoro-5-((3S,4S,E)-3-hydroxy-4-methyl-7-phenylhept-1-en-1-yl)-2-oxopyrrolidin-1-yl)propyl)thiophene-2-carboxylic acid]
- Bone density of osteoporotic femur (osteoporotic femur; 100 μg/gm or 300 μg/gm cement insert, twenty weeks, FIG. 6): Increased Bone Density

Structure (SMILES): CCC#CC[C@H](C)[C@H](O)/C=C/[C@H]1CCC(=O)N1CCCCCCC(=O)O [2E′, 7-((R)-2-((3S,4S,E)-3-hydroxy-4-methylnon-1-en-6-yn-1-yl)-5-oxopyrrolidin-1-yl)heptanoic acid]
- Healing of a calvarial bone defect (rat calvarial defect [1]; 3 mg/ml in cement-DBM putty 1:8, FIG. 2): Accelerated Healing
- Healing of a calvarial bone defect, loaded into intact demineralized bone matrix (rat calvarial defect [3]): Accelerated Healing
- Bone density of osteoporotic femur (osteoporotic femur; 10 mg/gm cement insert, three weeks, FIG. 5): Increased Bone Density

Structure (SMILES): CCCC#CCC(C)[C@H](O)/C=C/[C@H]1CCC(=O)N1CCCCCCC(=O)O (mixture of isomers) [3C′, 7-((2R)-2-((3S,4R/S,E)-3-hydroxy-4-methyldec-1-en-6-yn-1-yl)-5-oxopyrrolidin-1-yl)heptanoic acid]
- melting point: 104 to 105 °C

Next, values leading:

- hEP4 receptor binding, % @100 [2]: 86% @100
Structure (SMILES): CC#CCC(C)[C@H](O)/C=C/[C@H]1CCC(=O)N1CCCCCCC(=O)O (mixture of isomers) [Example 1C′, 7-((2R)-2-((3S,4R/S,E)-3-hydroxy-4-methyloct-1-en-6-yn-1-yl)-5-oxopyrrolidin-1-yl)heptanoic acid]

- hEP4 receptor binding, % @100 [2]: 11% @100
Structure (SMILES): CC#CCC(C)[C@@H](O)/C=C/[C@H]1CCC(=O)N1CCCCCCC(=O)O (mixture of isomers) [Example 1D′, 7-((2R)-2-((3R,4R/S,E)-3-hydroxy-4-methyloct-1-en-6-yn-1-yl)-5-oxopyrrolidin-1-yl)heptanoic acid]

- IC50 ([2]; 0.5 nM [3H]PGE2, HEK-293 cell membrane homogenates, read-out: hEP4 receptor binding (nM) IC50): 2.4 nM
- Ki ([2]; 0.5 nM [3H]PGE2, HEK-293 cell membrane homogenates, read-out: hEP4 receptor binding (nM) Ki): 0.89 nM
Structure (SMILES): C[C@@H](CCCc1ccccc1)[C@H](O)/C=C/[C@H]1CC(F)(F)C(=O)N1CCCCCCC(=O)O [Example 6D, 7-((R)-3,3-difluoro-5-((3S,4S,E)-3-hydroxy-4-methyl-7-phenylhept-1-en-1-yl)-2-oxopyrrolidin-1-yl)heptanoic acid]
